# Where two headings read alike, the source gives them in different places.
# How the values were obtained:
# [1] = HPMC vs gelatin capsules of amorphous Compound 2: potency, purity, water uptake after 1 week; format: physicochemical
# Method: Twenty capsules of both hydroxypropyl methylcellulose (HPMC, also known as Hypromellose) and gelatin were filled with 25±1 mg of amorphous Compound 2 to determine if the lower water content found in HPMC capsules would retard the water uptake of the compound. Samples of Compound 2 in both capsule types were placed at 25° C./60% RH and 40° C./75% RH for 1 week. The samples were analyzed for water content, potency, and % purity (% area) at t=0 and t=1 week.
# 20 transparent size 00 HPMC capsules and 20 transparent size 00 gelatin capsules were hand filled with API.
# Each capsules was filled with 25±1 mg of API.
# The two capsule types were both separated into two 30 cc HDPE bottles with caps and placed at both 25° C./60% RH and 40° C./75% RH for 1 week.
# For the t=0 time point, Compound 2 was analyzed for water content, potency, and % purity (% area).
# Two samples of Compound 2 were taken at t=0 for water content. The first sample was taken after the HPMC capsules had been filled and the second sample was taken after the gelatin capsules had been filled. This sampling procedure was done to offset the water uptake that took place while the capsules were being filled.
# 76.17 mg of Compound 2 was weighed directly into a 100-mL volumetric flask.
# The flask was diluted to volume with ACN and inverted to mix.
# A 1 mL aliquot was transferred directly into an HPLC vial for analysis.
# [2] = Compound 2 solubility in solvents and buffers (saturated, 24 h shaking, HPLC); format: physicochemical; conditions: for solubility at 24 h: thermodynamic from solid
# Method: Solubility of Compound 2 in a solvent, selected from water, methanol, acetonitrile (ACN) and iso-propanol and in 50 mM phosphate buffer at pH 1, 2, 7 and 8, 50 mM citrate buffer at pH 3, 4, 5 and 6 and in 50 mM borate buffer at pH 9 was assessed. Compound 2 was added to 10 mL of the solvent or buffer until the solution was visibly saturated and remained cloudy upon vortex mixing. Each sample was placed on a reciprocal shaker at room temperature for 24 hours then filtered through a 0.45 μm nylon filter to remove excess suspended compound. The samples were then diluted where required in accordance with Table 24, and analyzed by HPLC. The results were compared with a standard curve of known concentrations in ACN.
# [3] = Dissolution comparison of solid sodium salt forms in capsules; format: physicochemical
# Method: Dissolution of three forms of solid sodium salt were analyzed, a monosodium trihydrate (Compound 6), a monosodium salt dihydrate (Compound 7) and amorphous Compound 2.
# The crystalline material was made by exposing amorphous Compound 2 to ambient temperature/75% RH for 24 hrs. These conditions were created using a saturated sodium chloride solution sealed in a desiccant chamber. Once the crystalline material had been created it was collected and stored at 2-8° C. until dissolution testing took place. Two samples for dissolution were prepared by weighing 25 mg±1 mg into size 00 white opaque gelatin capsules.
# Crystalline Compound 7 dihydrate was made by placing a sample of the iso-propanol solvate of Compound 2 at ambient temperature and humidity conditions for 2 weeks. The iso-propanol solvate of Compound 2 readily converts to the dihydrate. Once Compound 7 had been prepared, it was collected and stored at 2-8° C. until dissolution testing was conducted. Two samples for dissolution were prepared by weighing 25 mg±1 mg into size 00 white opaque gelatin capsules.
# Two samples for dissolution were prepared by weighing 25 mg±1 mg of amorphous Compound 2 into size 00 white opaque gelatin capsules.
# The dissolution materials and parameters are set out in Table 33. At each pull time ˜6 mL of media was removed from each vessel and filtered through a 0.45 μm nylon filter. The first 5 mL of solution was discarded and the final 1 mL was collected in a UPLC vial for analysis.
# [4] = Bulk density, tap density, powder flow, particle size and milling feasibility of Compound 2; format: physicochemical; conditions: for Tap Density: Autotap 100 cycles
# Method: Compound 2 particle size distribution was determined by sieve screen analysis. A sample of Compound 2 was passed through a series of sieves, which included a 53, 106, 250, 500, 710, and 1000 μm mesh screen. Each screen was weighed before and after the sieving occurred to determine the amount of compound at each particle size.
# The powder flow was determined on a FlowDex apparatus.
# Bulk density was determined by filling a tared 100 mL graduated cylinder with Compound 2. The volume and weight of Compound 2 added was recorded and used to calculate its bulk density. Tap density was then determined by taking the same graduated cylinder filled with Compound 2 and placing it on an Autotap set for 100 cycles. The new powder volume was recorded and used to calculate the tap density.
# 24.73 mg of Compound 2 was weighed directly into a tared 25 mL volumetric flask. The flask was diluted to volume with ACN and inverted to mix. A sample was taken to determine the % purity (% area) of the drug before milling took place. Milling was performed by taking 17.92 g of Compound 2 and passing this material it through a conical mill with an 1143 μm screen. 14.33 g of Compound 2 was recovered and re-analyzed for particle size distribution, bulk density, and tap density. 24.93 mg of milled Compound 2 was weighed directly into a tared 25 mL volumetric flask. The flask was diluted to volume with ACN and inverted to mix. This sample was taken to determine the % purity (% area) after Compound 2 had been milled.
# After Compound 2 had been milled it was blended with 2.5% w/w of colloidal silicon dioxide, Cab-O-Sil®, on a T2 Turbula blender for 2 minutes. The blended powder was collected and its flow properties were analyzed on a FlowDex apparatus.
# [5] = dog, in vivo, po, 10 mg/kg
# Method: The study was designed to compare the PK profiles of the following four forms of Compound 1 administered as single oral capsules in fasted state. […] There was a washout period of 4 days between dosing. The blood samples were collected from each animal at predetermined times on the study Days 1, 4, 8 and 11. The plasma was analyzed for Compound 1 by a validated HPLC-MS/MS assay.
# Descriptive PK parameters were determined by standard model independent methods (Gibaldi and Perrier, 1982) based on the individual plasma concentration-time data. Plasma concentrations were rounded to 3 significant figures. Plasma samples with concentrations below the quantifiable assay limit (BQL<2.00 ng/mL) were assigned values of zero for mean calculations. For PK calculations, BQL was set to zero from the pre-dose time up to the time of the first quantifiable concentration and thereafter was set as missing. Nominal time points were used for all calculations. • Cmax is the observed maximum plasma concentration after dosing. • Tmax is the time to reach Cmax. • T1/2 is apparent half-life calculated by ln(2)/λ where λ is the rate constant fix the log-linear portion of the terminal phase. A minimum of three values in the post-distribution phase of the plasma concentration-time curve is required for calculation of X. • AUC(0-T) is the area under the plasma concentration-time curve from time zero to the time of the last measurable plasma concentration determined using the linear trapezoidal rule. • AUC(0-inf) is the area under the plasma concentration-time curve from time zero to infinity. It is calculated by summing AUC(0-T) and the extrapolated area from the T to infinity.
# PK analyses were performed by noncompartmental analysis using model 200 in WinNonlin Professional 6.1 (Pharsight Corp., Mountain View, Calif.).
# [6] = Gelatin Capsules, 25° C., t = 1 week
# [7] = Gelatin Capsules, 40° C., t = 1 week
# [8] = HPMC Capsules, 25° C., t = 1 week
# [9] = HPMC Capsules, 40° C., t = 1 week
compound,measurement,setting,value
"COc1ccc2c(c1OCc1ccccc1)C[C@@H](C(=O)[O-])N(C(=O)C(c1ccccc1)c1ccccc1)C2.[Na+] [Compound 2, sodium salt of (S)-2-(diphenylacetyl)-1,2,3,4-tetrahydro-6-methoxy-5-(phenylmethoxy)-3-isoquinoline carboxylic acid]",% Potency,[1]; [6],90.1%
same,% a/a Purity,[1]; [6],98.95 % a/a
same,Δ% a/a Purity,[1]; [6],0.00 % a/a
same,% Potency,[1]; [7],90.8%
same,% a/a Purity,[1]; [7],98.88 % a/a
same,Δ% a/a Purity,[1]; [7],−0.07 % a/a
same,% Potency,[1]; [8],90.2%
same,% a/a Purity,[1]; [8],98.95 % a/a
same,Δ% a/a Purity,[1]; [8],0.00 % a/a
same,% Potency,[1]; [9],89.8%
same,% a/a Purity,[1]; [9],98.74 % a/a
same,Δ% a/a Purity,[1]; [9],−0.21 % a/a
same,% Potency,[1]; Sample t = 0,86.3%
same,% a/a Purity,[1]; Sample t = 0,98.95 % a/a
same,potency and % purity (% area) after 1 week,"[1]; all conditions tested (HPMC and gelatin capsules, 25° C./60% RH and 40° C./75% RH)",unchanged
same,slowing of the uptake of water by HPMC capsules relative to gelatin,"[1]; stored at 40° C./75% RH, 1 week",3.74%
same,solubility at 24 h,"[2]; 50 mM borate buffer, aqueous buffer, pH 9 buffer (borate, 50 mM)",5300 µg/mL
same,solubility at 24 h,"[2]; 50 mM citrate buffer, aqueous buffer, pH 4 buffer (citrate, 50 mM)",< 1 µg/mL
same,solubility at 24 h,"[2]; 50 mM citrate buffer, aqueous buffer, pH 5 buffer (citrate, 50 mM)",33 µg/mL
same,solubility at 24 h,"[2]; 50 mM citrate buffer, aqueous buffer, pH 6 buffer (citrate, 50 mM)",900 µg/mL
same,solubility at 24 h,"[2]; 50 mM phosphate buffer, aqueous buffer, pH 1 buffer (phosphate, 50 mM), room temperature 24 h",< 1 µg/mL
same,solubility at 24 h,"[2]; 50 mM phosphate buffer, aqueous buffer, pH 2 buffer (phosphate, 50 mM)",< 1 µg/mL
same,solubility at 24 h,"[2]; 50 mM phosphate buffer, aqueous buffer, pH 7 buffer (phosphate, 50 mM)",1700 µg/mL
same,solubility at 24 h,"[2]; 50 mM phosphate buffer, aqueous buffer, pH 8 buffer (phosphate, 50 mM)",1600 µg/mL
same,Solubility,[2]; Methanol,>50000 µg/mL
same,solubility at 24 h,"[2]; acetonitrile, organic solvent or mixture",12000 µg/mL
same,solubility at 24 h,"[2]; iso-propanol, organic solvent or mixture, IPA",700 µg/mL
same,solubility at 24 h,"[2]; methanol, organic solvent or mixture",> 50000 µg/mL
same,solubility at 24 h,[2]; water,14000 µg/mL
same,% Dissolution,"[3]; 15 mins, 25 mg in gelatin capsule, pH 6.8 phosphate buffer 900 mL, 37° C., 50 RPM",77.8%
same,% Dissolution,"[3]; 30 mins, pH 6.8 phosphate buffer, 50 RPM",83.6%
same,% Dissolution,"[3]; 45 mins, pH 6.8 phosphate buffer, 50 RPM",86.3%
same,% Dissolution,"[3]; 60 mins, pH 6.8 phosphate buffer, 50 RPM",88.8%
same,% Dissolution,"[3]; 120 mins, pH 6.8 phosphate buffer, 150 RPM for 2nd hour",92.9%
same,dissolution rate (comparison of forms),"[3]; pH 6.8 phosphate buffer, capsules",dissolved considerably faster
same,average particle size,[4]; after milling,~560 μm
same,% Purity with milling,[4]; before vs after milling,% Purity of Compound 2 sample did not change with milling.
same,powder flow (FlowDex),[4]; bulk unmilled,"unable to pass through the largest available, 34 mm, orifice"
same,average particle size,"[4]; bulk, before milling",~775 μm
same,Bulk Density,"[4]; milled (conical mill, 1143 μm screen)",0.073 g/mL
same,Tap Density,[4]; milled,0.098 g/mL
same,powder flow (FlowDex),"[4]; milled, blended with 2.5% w/w colloidal silicon dioxide",passed through a 34 mm orifice but failed to pass through a 32 mm orifice
same,Bulk Density,[4]; unmilled,0.089 g/mL
same,Tap Density,[4]; unmilled,0.114 g/mL
same,"Plasma concentration of Compound 1, 0.25 h",[5],BQL
same,"Plasma concentration of Compound 1, 0.5 h",[5],BQL
same,"Plasma concentration of Compound 1, 24 h",[5],BQL
same,"Plasma concentration of Compound 1, Predose",[5],BQL
same,"Plasma concentration of Compound 1, Predose","[5]; male, beagle",0.00 ng/mL

# Reference: patent US8614227B2, “Salt and solvates of a tetrahydroisoquinoline derivative” (Spinifex Pharmaceuticals Pty Ltd, priority 2010, dated 2013)
